Experimental data from patent US6214859A, “Ethylamine derivatives” (Fujimoto Brothers Co., Ltd., priority 1997, dated 2001).

How the values were obtained:
D1 receptor = target: T1, D1 receptor (Rattus norvegicus, UniProt P18901); assay: Affinity to D1 receptor; assay type: binding
T1 construct: The precipitate was used as the solution of receptor; from tissue; host or cells: rat brain (whole) crude membranes

α1 receptor = assay: Affinity to α1 receptor; design: species or system rat; conditions: read-out: Affinity to α1 receptor (MIC50; mole concentration for 50% inhibition of binding); 0.25 nM ^3H-prazocin; 90 min
Protocol: The solution of receptor was prepared as follows. As soon as rats were decapitated, brain was removed and its weight was measured. Its brain was homogenized in ten times volumes of ice-cold 0.35 M sucrose (pH 7.4) by glass homogenizer with teflon pestle which was revolted by motors. Thereafter, the homogenate was centrifuged at 4° C. at 900×g for 10 min and the supernatant was, furthermore, recentrifuged at 4° C. at 22,000×g for 20 min. The precipitate was suspended by addition of 5 mM phosphate buffer solution (pH 7.4). After the suspension was incubated at 37° C. for 30 min, the suspension was recentrifuged at 4° C. at 22,000×g for 20 min. The precipitate was resuspended by addition of 10 ml of 5 mM phosphate buffer solution (pH 8.0). The precipitate was used as the solution of receptor.
^3 H-prazocin was used as a ligand. 0.25 nM ^3 H-prazocin in 5 mM phosphate buffer (pH 8.0), the compound of this invention and the solution of receptor were added in tube and the mixture were incubated at 25° C. for 90 min. In addition, the […] binding was shown by binding value of ^3 H-prazocin under the coexistence with 0.1 μM prazocin. The binding reaction was carried out as follows. After ^3 H-prazocin (binding type: B) bound to receptor using glassfiberfilter (pore size: 0.5 μm, Whatman GF/C.) and free type of prazocin (free type: F) were separated with B/F separator (Brandel, USA), only the binding type of ^3 H-prazocin was collected. The binding type of ^3 H-prazocin absorbed to glass-fiber filter was washed with ice-cold saline solution and was remove to vial. After 10 ml of scintillation cocktail was added in it, the radioactivity was determined. From the binding inhibition rate of α1 receptor and ligand, affinity of the compounds of this invention to α1 receptor was measured.
If affinity of certain compound to a receptor is high, the binding ligand and receptor is inhibited.

5-HT2 receptor = target: T2, 5-HT2 receptor (Rattus norvegicus, UniProt P14842); assay: Affinity to 5-HT2 receptor; assay type: binding
T2 construct: The precipitate was used as the solution of receptor; from tissue; host or cells: rat brain (whole) crude membranes
T2 sequence (P14842 whole entry): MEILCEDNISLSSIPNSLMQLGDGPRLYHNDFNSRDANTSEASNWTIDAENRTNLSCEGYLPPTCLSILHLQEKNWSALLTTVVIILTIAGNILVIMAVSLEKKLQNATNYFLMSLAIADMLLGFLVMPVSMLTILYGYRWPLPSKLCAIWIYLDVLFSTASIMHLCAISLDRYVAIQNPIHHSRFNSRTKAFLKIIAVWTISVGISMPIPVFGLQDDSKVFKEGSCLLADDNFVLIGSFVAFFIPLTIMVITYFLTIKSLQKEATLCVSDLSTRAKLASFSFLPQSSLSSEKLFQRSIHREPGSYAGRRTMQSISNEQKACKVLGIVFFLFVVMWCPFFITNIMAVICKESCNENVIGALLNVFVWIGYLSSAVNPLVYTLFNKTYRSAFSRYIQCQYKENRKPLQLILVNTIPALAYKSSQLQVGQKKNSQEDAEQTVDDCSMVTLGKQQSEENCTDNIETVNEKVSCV

5-HT1 receptor = assay: Affinity to 5-HT1 receptor; design: species or system rat; conditions: read-out: Affinity to 5-HT1 receptor (MIC50; mole concentration for 50% inhibition of binding); 2 nM ^3H-5-HT
[1] = test system: monoamine release from synaptosomes; assay: Releasing effect of monoamines in synaptosomes of the rat brain; conditions: compound 5×10^-5 M with tyramine 10^-6 M (FIG. 9)
Protocol: Synaptosomes were prepared as follows. Fresh striatum (for determination of dopamine) and fresh forebrain (for determination of noradrenaline and serotonin) were removed from listar rats of 8 weeks old (NIPPON S. L. C.). Ten times volumes of ice-cold 0.35 M sucrose (pH 7.4) were added in the brain tissue and homogenized using glass homogenizer with teflon pestle which was revolted by motors. Thereafter the homogenate was centrifuged at 900×g for 10 min at 4° C. and the supernatant was recentrifuged at 11,500×g for 20 min. The pellet was resuspeded in ice-cold buffer. Final concentration of synaptosomes was prepared to 0.6 mg protein/ml. Protein concentration was determined by method described in Journal of Biological Chemistry, 193, 265-275 (1951) and the bovine serum albumin was used as an authentic standard. The release of monoamine from synaptosomes was determined by the following procedure based on the method described in Journal of Pharmacology and Experimental Therapeutics, 241, 27-33 (1987). The solution of 0.6 mg/ml of synaptosomes was preincubated for 5 min at 35° C. under the oxygenated (95% O2 and 5% CO2) condition. Thereafter 25 nM ^3 H-monoamines were added in synaptosomal solution and the solutions were incubated for 5 min at 35° C. […]

T1 sequence (P18901 whole entry): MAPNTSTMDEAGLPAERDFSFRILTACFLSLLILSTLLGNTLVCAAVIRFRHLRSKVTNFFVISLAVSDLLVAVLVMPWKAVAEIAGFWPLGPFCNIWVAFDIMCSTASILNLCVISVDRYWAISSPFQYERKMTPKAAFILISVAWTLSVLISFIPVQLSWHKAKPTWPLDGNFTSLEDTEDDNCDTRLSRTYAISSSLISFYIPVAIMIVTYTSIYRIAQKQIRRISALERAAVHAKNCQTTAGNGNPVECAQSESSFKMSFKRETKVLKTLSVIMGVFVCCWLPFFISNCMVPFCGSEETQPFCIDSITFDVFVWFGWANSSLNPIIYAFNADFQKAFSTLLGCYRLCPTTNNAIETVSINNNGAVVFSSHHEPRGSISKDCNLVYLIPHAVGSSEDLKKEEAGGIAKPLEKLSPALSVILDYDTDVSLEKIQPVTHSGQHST

Row | SMILES | IC50 (D1 receptor) [µM] | IC50 (α1 receptor) [µM] | IC50 (5-HT2 receptor) [µM] | IC50 (5-HT1 receptor) [µM] | antagonism against the effect of tyramine [1]
1 | CCCNC(CCC)Cc1c[nH]c2ccccc12.Cl (centres unmarked) [Compound No. 20, 1-(Indol-3-yl)-2-propylaminopentane Hydrochloride] | > 10 | 80 | > 10 | 7 | –
2 | CCCNC(CCC)Cc1ccc2c(c1)OCO2.Cl (centres unmarked) [Compound No. 27, 1-(1,3-Benzodioxol-5-yl)-2-propylaminopentane Hydrochloride] | – | – | – | – | Tyramine antagonistic property
